{"source": "patent US20130236960A1", "about": "“VITRIFICATED STORAGE SOLUTION FOR CELLS” (priority 2010, published 2013)", "key": {"[1]": {"test": "Examination of vitrification promoting substances in 30% DMSO/PBS", "format": "physicochemical", "conditions": "0.3 M added to 30% DMSO solution", "procedure": "Specifically, the experiment was conducted as follows: • As the vitrification promoting substance, the following saccharides were examined: glucose, sucrose, maltose, fructose, trehalose, raffinose, erythritol, xylitol, sorbitol and mannitol. • The vitrification promoting substance was dissolved in 30% DMSO/PBS to a concentration of 0.3 M and 0.6 M respectively. • The solution thus prepared was divided into 200 μl portions in cryo-tubes, which were dipped into liquid nitrogen for rapid cooling. The tubes were dipped into liquid nitrogen for 5 minutes or more to stabilize the temperature before observation of each tube."}, "[2]": {"test": "Examination of ice crystal growth inhibitor: time for melting the vitrified storage solution", "format": "physicochemical", "conditions": "for time required for the once vitrificated storage solution to be melted completely: 40% EG storage solution with the additive", "procedure": "Examination of the ice crystal growth inhibitor was conducted by comparing the times required for melting the crystallized vitrificated storage solutions. That is, when crystal lumps having the same volume are melted, a polycrystalline substance having a larger total surface area is melted more quickly. It is believed that when the growth of ice crystals is suppressed on the phase transition to crystalline state, the melting time is shortened probably due to the formation of many minute ice crystals.\nSpecifically, experiment was conducted according to the following procedure. • The test fluid prepared was dispensed in a portion of 200 μl into 1.5 ml microtubes. • Dewar vessel was charged with liquid nitrogen, and a timer was provided. • The microtube was picked up with tweezers and dipped into liquid nitrogen for 40 seconds for vitrification. • The microtube was pulled out from liquid nitrogen, and the time required for complete disappearance of ice within the tube was measured."}, "[3]": {"test_system": "Common marmoset (CM) ES cells", "test": "Cytotoxicity and influence on differentiation with common marmoset ES cells", "format": "cell-based", "conditions": "2% in culture medium for CMES; for nature of the colony morphology: after 3 days", "procedure": "Specifically, the experiment was conducted as follow • CMES cells were cultured with reference to “Establishment of novel embryonic stem cell lines derived from the common marmoset” ([…], Izawa […], Asano 5, Nakatsuji N, Okano H, Tani K. Stem Cells. 2005 October; 23(9):1304-13). • CMES cells were seeded in a φ35 mm dish to which feeder cells had preliminarily been adhered, and the cell membrane permeable substance was added in an amount corresponding to 2% of the amount of the culture medium. • After 3 days, microscopic observation was conducted, and the presence of the growth suppression and differentiation promotion on CMES cells was examined."}, "[4]": {"test_system": "Mouse ES cell line strain D3", "test": "Vitrification preservation efficiency with mouse ES cells (trypan blue survival rate, colony observation)", "format": "cell-based", "conditions": "for colonies after vitrification, melting and culture: cell membrane permeable substance used alone, 40%, 60 seconds, 3 days culture", "procedure": "The mouse ES cells after vitrification and melting were seeded, and the state of the cells after culture was confirmed by microscopic observation.\n(§1) Specifically, the experiment was conducted as follows: • Mouse ES cells were cultured according to the ordinary method. • The mouse ES cells recovered were counted, divided into 10^6 cell portions in 1.5 ml tubes, and centrifuged at 1500 rpm for 5 minutes. • The supernatant was removed, and the cells were suspended in 200 μl of the vitrification medium. • After suspension, DAP213 and the test fluid were dipped into liquid nitrogen after 15 seconds and 60 seconds, respectively, for vitrification. • The tubes were left standing for 5 minutes or more to stabilize the temperature. • The tubes were taken out liquid nitrogen, and the cells were diluted with 1800 μl of the culture medium preliminarily heated to 37° C. and rapidly suspended for melting. • A portion of the suspension was sampled for counting the cells. • On counting the cells, the life or death of cells was judged from the index of the selective excretive ability of the viable cells to trypan blue and the survival rate was calculated. • The remaining cells were seeded in a 24 well plate, and the state after 3 days was confirmed by microscopic observation.\nThe 40% solution of each cell membrane permeable substance in PBS was prepared, and the mouse ES cells was suspended in the solution, left standing for 60 seconds, and dipped into liquid nitrogen for vitrification.\nas §1, with “Specifically,” for “Specifically, the”, “out from” for “out”\nas §1, with “Specifically,” for “Specifically, the”, “out from” for “out”, “calculated.” for “calculated. • The remaining cells were seeded in a 24 well plate, and the state after 3 days was confirmed by microscopic observation.”"}, "[5]": {"test_system": "Common marmoset ES cell line strain CMES40", "test": "Preservation effect on common marmoset ES cells (take rate, ALP-positive colonies)", "format": "cell-based", "conditions": "cell membrane permeable substance used alone, with trehalose, 60 seconds", "description": "According to the present invention, it is possible to provide a vitrification medium which is excellent in operability and safety and can efficiently preserve cells, particularly primate ES/iPS cells. Specifically, the take rate of ca. 60% could be obtained even if simian ES cells were suspended in the vitrification medium of the present invention and after 60 seconds the suspension was poured into liquid nitrogen (as described hereinafter, the “take rate” in place of the “survival rate” is used with respect to the preservation efficiency of simian ES cells. In this place, the take rate is calculated on the basis of the number of undifferentiated colonies having taken after three or four days from the seeding of the cells without vitrification as 100). Hitherto, when DAP213, which has been most commonly used, was used, it was important to pour the cell suspension into liquid nitrogen within 15 seconds after suspending the cells in DAP213 for avoiding the lowering of the survival rate. Due to this fact, skillfulness was required for operations and wide dispersion in results was apprehended to occur depending on the technical skills of operators, so that a stable result was not always obtained. […]"}, "[6]": {"test": "Vitrification ability of cell membrane permeable substances by rapid cooling with liquid nitrogen", "format": "physicochemical", "conditions": "30% solution in PBS", "procedure": "The 10 to 50% solutions of 6 dials (EG, PG, BG, IPG, DPG and PEG) and of DMSO were prepared and confirmed to be vitrified by rapid cooling with liquid nitrogen. Specifically, respective cell membrane permeable substances are dissolved in PBS to concentrations of 10, 20, 30, 40 and 50%, and the solution was stained with a small amount of phenol red in order to readily judge the vitrification. The solution thus prepared was divided into 200 μl portions in cryo-tubes, which were dipped into liquid nitrogen for rapid cooling. The tubes were dipped into liquid nitrogen for 5 minutes or more to stabilize the temperature before observation of each tube."}, "[7]": {"test": "Solubility at low temperature", "format": "physicochemical"}}, "note": "“Also recorded” adds a separate entry of the source.", "data": [{"molecule": "OC[C@H]1O[C@H](O[C@H]2O[C@H](CO)[C@@H](O)[C@H](O)[C@H]2O)[C@H](O)[C@@H](O)[C@@H]1O", "note": "[trehalose, D-(+)-Trehalose-dihydrate]", "values": [{"measurement": "vitrification by rapid cooling in liquid nitrogen", "setting": "[1]", "value": "vitrified"}, {"measurement": "time required for the once vitrificated storage solution to be melted completely", "setting": "[2]", "value": "no reduction of melting time"}]}, {"molecule": "OC[C@H]1O[C@@](CO)(O[C@H]2O[C@H](CO)[C@@H](O)[C@H](O)[C@H]2O)[C@@H](O)[C@@H]1O", "note": "[sucrose, Sucrose, reference compound]", "values": [{"measurement": "time required for the once vitrificated storage solution to be melted completely", "setting": "[2]", "value": "no reduction of melting time"}]}, {"molecule": "OCCO", "note": "[EG, Ethylene glycol]", "values": [{"measurement": "differentiation promoting effect on the CMES cells", "setting": "[3]", "value": "no differentiation promoting effect"}, {"measurement": "nature of the colony morphology", "setting": "[3]", "value": "good"}, {"measurement": "survival rate after melting", "setting": "[4]; 40% solution in PBS, left standing for 60 seconds before vitrification", "value": "substantially lowered as compared with DMSO+PG; also recorded: second highest"}, {"measurement": "colonies after vitrification, melting and culture", "setting": "[4]", "value": "biggest colony"}, {"measurement": "preservation efficiency", "setting": "[5]", "value": "high preservation efficiency"}]}, {"molecule": "CC(N)=O", "note": "[acetamide, Acetamide]", "values": [{"measurement": "survival rate, effect of acetamide", "setting": "[4]; DAP213 versus DP23, vitrification after 60 seconds", "value": "reduced"}, {"measurement": "improvement of the survival rate due to acetamide", "setting": "[4]; DAP213 versus DP23, vitrification within 15 seconds", "value": "not recognized"}]}, {"molecule": "OCCCCO", "note": "[BG, Butylene glycol]", "values": [{"measurement": "vitrification by rapid cooling with liquid nitrogen", "setting": "[6]", "value": "vitrified"}]}, {"molecule": "CC(O)CO", "note": "(centres unmarked) [PG, Propylene glycol]", "values": [{"measurement": "vitrification by rapid cooling with liquid nitrogen", "setting": "[6]", "value": "vitrified"}, {"measurement": "differentiation promoting effect on the CMES cells", "setting": "[3]", "value": "no differentiation promoting effect"}, {"measurement": "nature of the colony morphology", "setting": "[3]", "value": "good"}, {"measurement": "colonies after vitrification, melting and culture", "setting": "[4]", "value": "secondly"}]}, {"molecule": "sericin", "values": [{"measurement": "time required for the once vitrificated storage solution to be melted completely", "setting": "[2]", "value": "shortened"}, {"measurement": "growth of ice crystals", "setting": "[2]; concluded from melting time", "value": "suppresses the growth of ice crystals"}]}, {"molecule": "CC(O)COC(C)CO", "note": "(centres unmarked) [DPG, Diprepylene glycol]", "values": [{"measurement": "vitrification by rapid cooling with liquid nitrogen", "setting": "[6]", "value": "vitrified"}]}, {"molecule": "OC[C@H]1O[C@H](OC[C@H]2O[C@H](O[C@]3(CO)O[C@H](CO)[C@@H](O)[C@@H]3O)[C@H](O)[C@@H](O)[C@@H]2O)[C@H](O)[C@@H](O)[C@H]1O", "note": "[raffinose, D-(+)-Raffinose-pentahydrate]", "values": [{"measurement": "vitrification by rapid cooling in liquid nitrogen", "setting": "[1]", "value": "vitrified"}, {"measurement": "solubility", "setting": "[7]", "value": "low solubility"}]}, {"molecule": "CC(C)(O)CCO", "note": "[IPG, Isoprene glycol]", "values": [{"measurement": "vitrification by rapid cooling with liquid nitrogen", "setting": "[6]", "value": "vitrified"}]}, {"molecule": "C[S+](C)[O-]", "note": "[DMSO, Dimethyl sulfoxide]", "values": [{"measurement": "vitrification by rapid cooling with liquid nitrogen", "setting": "[6]", "value": "no vitrification occurs"}, {"measurement": "differentiation promoting effect on the CMES cells", "setting": "[3]", "value": "no differentiation promoting effect"}, {"measurement": "nature of the colony morphology", "setting": "[3]", "value": "good"}, {"measurement": "colonies after vitrification, melting and culture", "setting": "[4]", "value": "least number of colonies"}]}, {"molecule": "Bovine serum albumin [reference compound]", "values": [{"measurement": "time required for the once vitrificated storage solution to be melted completely", "setting": "[2]", "value": "an effect similar to that of sericin, its activity remained unsatisfactory"}]}]}
